Measured values: patent US10526352B2, “Tricyclic benzoxaborole compounds and uses thereof” (GlaxoSmithKline Intellectual Property (No.2) Limited, priority 2013, dated 2020)
≈ marks a conversion by molar mass, not a printed value. Like-named read-outs stand apart in the source and are kept apart here.

Legend:
P. aeruginosa PA01 = assay: General antimicrobial activity assay (CLSI broth microdilution); assay type: cell-based, Pseudomonas aeruginosa
Experimental: (§1) Whole-cell antimicrobial activity was determined by broth microdilution using the Clinical and Laboratory Standards Institute (CLSI) recommended procedure, Document M7-A7, “Methods for Dilution Susceptibility Tests for Bacteria that Grow Aerobically”.

E. coli K12 = assay: as above; assay type: cell-based, Escherichia coli
Experimental: as §1

E. coli K12 tolC::Tn10 = assay: as above; assay type: cell-based, Escherichia coli
Experimental: as §1

A. baumannii ATCC 17978 = assay: as above; assay type: cell-based, Acinetobacter baumannii
Experimental: as §1

[1] = tested on: M. tuberculosis standard strain Mtb H37Rv; assay: MIC determination against mycobacteria (resazurin, Middlebrook 7H9); assay type: cell-based, Mycobacterium tuberculosis; details: Mycobacterium tuberculosis, H37RV, read-out: Mtb H37Rv MIC (B)
[2] = HepG2 Tox50 (A) / Mtb H37Rv MIC (B)

Compound	HepG2 cell 48 h Tox50 (A) (HepG2 cells; 48 h)	Selectivity Index (A/B) (HepG2 cells; hydrochloride)	MIC: P. aeruginosa PA01 (P. aeruginosa PA01)	MIC: E. coli K12 (E. coli K12)	MIC: E. coli K12 tolC::Tn10 (E. coli K12 tolC::Tn10)	MIC: A. baumannii ATCC 17978 (A. baumannii ATCC 17978)	MIC [1]	HepG2 cell 48 h, figure in brackets beside Tox50 (HepG2 cells; 48 h, printed as >50 (40%))	Selectivity Index (A/B) (HepG2 cells; [2])	HepG2 cell 48 h Tox50 (A) (HepG2 cells; human, 48 h)
CC1(C)COc2ccc(Cl)c3c2B(OC3CN)O1.Cl (stereo not shown) [Example 11, (3-chloro-8,8-di methyl-7,8-dihydro-2H-1,6,9-trioxa-9a-borabenzo[cd]azulen-2-yl)methanamine Hydrochloride]	>50 µM	>185	>64 µg/mL	>64 µg/mL	>64 µg/mL	>64 µg/mL	0.27 µM	–	–	–
CC1COc2cccc3c2B(O1)OC3CN (stereo not shown) [Example C11-H, reference compound]	–	–	2 µg/mL (≈ 9.13 µM)	2 µg/mL (≈ 9.13 µM)	2 µg/mL (≈ 9.13 µM)	4 µg/mL (≈ 18.3 µM)	1.56 µM (≈ 0.342 µg/mL)	40%	>32	> 50 µM
CC1(C)COc2cccc3c2B(OC3CN)O1 (stereo not shown) [Example C12-H, reference compound]	–	–	16 µg/mL (≈ 68.6 µM)	4 µg/mL (≈ 17.2 µM)	2 µg/mL (≈ 8.58 µM)	4 µg/mL (≈ 17.2 µM)	> 5 µM	–	>4.9	24.5 µM
